Experimental data from article PMC9964242 (Vaccines, 2023).
Values after ≈ are worked out from the molar mass of the structure shown. Values joined by “and” are separate entries in the source; they are usually repeats but may differ in a detail not shown here. Identical values can stand only once. Like-named read-outs stand apart in the source and are kept apart here.

How the values were obtained:
in vitro = conditions: dog
MDCK cells [1] = system: MDCK cells
[2] = system: influenza A/Egypt/NRC098/2019(H1N1)
[3] = system: influenza A/Egypt/NRC098/2019(H1N1); test: microbe, parasite or virus in culture; conditions: H1N1, MDCK
Zika virus = conditions: cited from earlier work
MDCK cells [4] = conditions: cited from earlier work
A/ShanTou/169/06 (H1N1) = conditions: cited from earlier work
[5] = system: influenza A/chicken/Egypt/N12640A/2016 (H5N1); test: microbe, parasite or virus in culture; assay type: cell-based, influenza A/H5N1 virus; conditions: for IC50: Influenza A virus, H5N1, MDCK, read-out: IC50 (half-maximal inhibitory concentration)
[6] = system: seasonal influenza A/H1N1 virus; assay type: cell-based
[7] = system: seasonal influenza A/H1N1 virus; assay type: cell-based; conditions: for Viral inhibition / inactivation of viral infectivity through direct viricidal action: 10–100 µg/mL
[8] = system: seasonal influenza A/H1N1 virus; assay type: cell-based; remark: listed apart in the source
[9] = read-out: IC50 (half-maximal inhibitory concentration)

Compound	CC50 (in vitro) [µg/mL]	CC50 (half-maximal cytotoxic concentration) (MDCK cells [1]; dog) [µg/mL]	Antiviral activity against A/H1N1 (in words) [2]	SI (selectivity index = CC50/IC50) [2]	IC50 [3, 9] [µg/mL]	IC50 relative to CC50 (in words) [2]	further results
O=c1cc(-c2ccccc2)oc2cc(O)ccc12 [7-Hydroxy flavone]	5830 (≈ 24500 µM)	5830 (≈ 24500 µM)	poor antiviral activity	16.194	360 (≈ 1510 µM)		
O=C1c2cccc(O)c2C(=O)c2c(O)cc(CO)cc21 [Aloe emodin]	2280 (≈ 8440 µM)	2280 (≈ 8440 µM)		3.127	729 (≈ 2700 µM)		
OC[C@H]1O[C@@H](Oc2ccc(O)cc2)[C@H](O)[C@@H](O)[C@@H]1O [Arbutin]	> 10000			>13.09	764 (≈ 2810 µM)		
Cc1cc(O)c2c(c1)C(=O)c1cccc(O)c1C2=O [Chrysophanic acid]	46.1 (≈ 181 µM)	46.1 (≈ 181 µM)				IC50 > CC50	
O=C[C@H](O)[C@@H](O)[C@@H](O)[C@H](O)C(=O)O [D-Galacturonic acid, Galacturonic acid]	9610 (≈ 49500 µM)	9610 (≈ 49500 µM)				IC50 > CC50	
O=C[C@H](O)[C@@H](O)[C@H](O)[C@H](O)C(=O)O [D-Glucuronic acid, Glucuronic acid]	10300 (≈ 52800 µM)	10260 (≈ 52800 µM)				IC50 > CC50	
OC[C@@H](O)[C@@H](O)[C@H](O)[C@@H](O)CO [D-sorbitol]	> 10000			>3.215	3110 (≈ 17100 µM)		
C[C@@H]1CC[C@@]2(OC1)O[C@H]1[C@@H](O)[C@H]3[C@@H]4CC[C@H]5C[C@@H](O[C@@H]6O[C@H](CO)[C@H](O[C@@H]7O[C@H](CO)[C@@H](O)[C@H](O[C@@H]8OC[C@@H](O)[C@H](O)[C@H]8O)[C@H]7O[C@@H]7O[C@H](CO)[C@H](O)[C@H](O[C@@H]8O[C@H](CO)[C@@H](O)[C@H](O)[C@H]8O)[C@H]7O)[C@H](O)[C@H]6O)[C@H](O)C[C@]5(C)[C@H]4CC[C@]3(C)[C@H]1[C@@H]2C [Digitonin]	442 (≈ 360 µM)	442 (≈ 360 µM)	moderate antiviral activity	20.56	21.5 (≈ 17.5 µM)		IC50 (Zika virus): 7.91 µM; IC50 [3]: 21.6 µg/mL (≈ 17.5 µM)
C[C@]12CC[C@@H]3c4ccc(O)cc4CC[C@H]3[C@@H]1CC[C@@H]2O [Estradiol, estradiol, reference compound]	> 5000						IC50 [3]: 7.1 µg/mL (≈ 26.1 µM)
O=C1CC(c2ccccc2)Oc2ccccc21 (centres unmarked) [Flavanone]						IC50 > CC50	CC50 (half-maximal cytotoxic concentration) (MDCK cells [1]): 450 µg/mL (≈ 2010 µM)
O=c1c(O[C@@H]2O[C@H](CO)[C@@H](O)[C@H](O)[C@H]2O)c(-c2ccc(O)c(O)c2)oc2cc(O)cc(O)c12 [Isoquercitrin]	710 (≈ 1530 µM)	710 (≈ 1530 µM)	poor antiviral potential	4.25	167 (≈ 360 µM)		
C[C@@H]1O[C@@H](Oc2cc(O)c3c(=O)c(O[C@@H]4O[C@@H](C)[C@H](O)[C@@H](O)[C@H]4O)c(-c4ccc(O)cc4)oc3c2)[C@H](O)[C@H](O)[C@H]1O [Kaempferitrin]	> 10000		moderate antiviral activity	>209.20	47.8 (≈ 82.6 µM)		
C=C(C)[C@@H]1CC[C@]2(C)CC[C@]3(C)[C@H](CC[C@@H]4[C@@]5(C)CC[C@H](O)C(C)(C)[C@@H]5CC[C@]43C)[C@@H]12 [Lupeol]	560 (≈ 1310 µM)	560 (≈ 1310 µM)		5.98	93.6 (≈ 219 µM)		IC50 [3]: 93.7 µg/mL (≈ 220 µM)
C[C@@H]1O[C@@H](O[C@H]2[C@H](Oc3cc(O)c4c(c3)O[C@H](c3ccc(O)cc3)CC4=O)O[C@H](CO)[C@@H](O)[C@@H]2O)[C@H](O)[C@H](O)[C@H]1O [Naringin]	> 10000		moderate antiviral activity	>485.43	20.6 (≈ 35.5 µM)		IC50 [3]: 20.7 µg/mL (≈ 35.6 µM)
O=C(O)/C=C/c1ccccc1O [O-Coumaric acid]	9170 (≈ 55900 µM)	9172 (≈ 55900 µM)				IC50 > CC50	
O=C1C[C@@H](c2ccccc2)Oc2cc(O)cc(O)c21 [Pinocembrin]	> 10000		poor anti-H1N1 activity		> 10000		
COc1cc(C2Oc3cc([C@H]4Oc5cc(O)cc(O)c5C(=O)[C@@H]4O)ccc3OC2CO)ccc1O (some centres unmarked) [Silybin]	9480 (≈ 19700 µM)	9480 (≈ 19700 µM)	poor anti-influenza potential			IC50 > CC50	CC50 (MDCK cells [4]): > 400 µM; EC50 (A/ShanTou/169/06 (H1N1)): 70.8 ± 8.11 µM
COc1cc(C=O)ccc1O [Vanillin]	242 (≈ 1590 µM)	242 (≈ 1590 µM)				IC50 > CC50	
CC(=O)N[C@H]1[C@H]([C@H](O)[C@H](O)CO)OC(C(=O)O)=C[C@@H]1N=C(N)N [Zanamivir, reference compound]	> 10000			>12,626	0.792 (≈ 2.38 µM)		SI (selectivity index = CC50/IC50) [5]: >37,736; IC50 [5]: 0.265 µg/mL (≈ 0.797 µM)
CC[C@H](CC[C@@H](C)[C@H]1CC[C@H]2[C@@H]3CC=C4C[C@@H](O[C@@H]5O[C@H](CO)[C@@H](O)[C@H](O)[C@H]5O)CC[C@]4(C)[C@H]3CC[C@]12C)C(C)C [β-sitosterol-O-glucoside]	1750 (≈ 3030 µM)	1750 (≈ 3030 µM)		2434	0.719 (≈ 1.25 µM)		IC50 [5]: 0.613 µg/mL (≈ 1.06 µM); Plaque reduction %, Viral Adsorption [6]: 35.8% and 48.3% and 56.9%; Plaque reduction %, Viricidal [7]: 83.6% and 93.3% and 97.1%; Viral inhibition / inactivation of viral infectivity through direct viricidal action [7]: up to 90%; Plaque reduction %, Viral Replication [8]: 28.7% and 37.7% and 52.8%
CC[C@H](CC[C@@H](C)[C@H]1CC[C@H]2[C@@H]3CC=C4C[C@@H](O)CC[C@]4(C)[C@H]3CC[C@]12C)C(C)C [β-sitosterol]	9900 (≈ 23900 µM)	9900 (≈ 23900 µM)		10,154	0.975 (≈ 2.35 µM)		IC50 [5]: 0.295 µg/mL (≈ 0.711 µM); Plaque reduction %, Viral Adsorption [6]: 28% and 37.5% and 52.5%; Plaque reduction %, Viricidal [7]: 84% and 98.5% and 99%; Viral inhibition / inactivation of viral infectivity through direct viricidal action [7]: up to 90%; Plaque reduction %, Viral Replication [8]: 31.8% and 41.2% and 52.9%
